Like-named read-outs stand apart in the source and are kept apart here.
Target: T1, GAβ-dependent amyloid fibril formation (Human Aβ1-40 + GM1-containing liposome) (Homo sapiens, UniProt P05067)
T1 construct: Human Aβ1-40 (cat. #4307-v, prepared by Peptide Institute); purchased Peptide Institute 4307-v
Assay: Thioflavin T (ThT) assay of GAβ-dependent amyloid fibril formation (Aβ1-40 with GM1-containing liposome)
Format: biochemical
In short: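 Human Aβ1-40 (75 μM stock) pre-incubated 10 min at room temperature with compound (75 or 15 μM solution), then GM1-containing cholesterol/sphingomyelin liposome added and incubated 37° C, 18 hours. Fibrils quantified by ThT fluorescence (ex 430/em 490 nm, pH 8.5 glycine buffer); inhibition as ratio to compound-free control.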

[1] = inhibition rate against amyloid fibril formation, final concentration of the compound 25 μM, read-out: Inhibitory activity ABC evaluation
[2] = read-out: ThT Inhibitory activity (% inhibition)
[3] = @25 μM, read-out: ThT Inhibitory activity (% inhibition)

T1 sequence (P05067 672-711 limits assumed): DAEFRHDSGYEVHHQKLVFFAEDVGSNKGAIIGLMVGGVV

| SMILES | inhibition at 25 µM [1] | further results |
| --- | --- | --- |
| O=C(N[C@@H](CO)c1nc(-c2ccc(-n3cccn3)cc2)no1)c1ccc(F)cc1 [Compound 179, 4-fluoro-N-[(1S)-2-hydroxy-1-{3-[4-(1H-pyrazol-1-yl)phenyl]-1,2,4-oxadiazol-5-yl}ethyl]benzamide] | 40 to 80% |  |
| O=C1CC(CO)(c2nc(-c3ccc4c(c3)OC(F)(F)O4)no2)CN1c1ccc(Cl)cc1 (centres unmarked) [Compound 73, 1-(4-chlorophenyl)-4-[3-(2,2-difluorobenzo[d][1,3]dioxol-5-yl)-1,2,4-oxadiazol-5-yl]-4-(hydroxymethyl)pyrrolidin-2-one] | > 80% |  |
| O=C(N[C@@H](CO)c1noc(-c2ccc(OC(F)(F)F)cc2)n1)c1ccc(Cl)cc1 [Compound 126, (R)-4-chloro-N-(2-hydroxy-1-(5-(4-(trifluoromethoxy)phenyl)-1,2,4-oxadiazol-3-yl)ethyl)benzamide] | 40 to 80% |  |
| O=C(N[C@@H](CO)c1nc(-c2cnc3ccccc3c2)no1)c1ccc(F)cc1 [Compound 173, 4-fluoro-N-[(1S)-2-hydroxy-1-[3-(quinolin-3-yl)-1,2,4-oxadiazol-5-yl]ethyl] benzamide] | < 40% |  |
| N#Cc1cccc(-c2nnc([C@H](CO)NC(=O)c3ccc(Cl)cc3)o2)c1 [Compound 106, (S)-4-chloro-N-(1-(5-(3-cyanophenyl)-1,3,4-oxadiazol-2-yl)-2-hydroxyethyl) benzamide] | 40 to 80% |  |
| NC[C@H](NC(=O)c1ccccc1)c1nc(-c2ccc(OC(F)(F)F)cc2)no1 [Compound 149, N-[(1S)-2-amino-1-{3-[4-(trifluoromethoxy)phenyl]-1,2,4-oxa-diazol-5-yl}ethyl] benzamide] | < 40% |  |
| O=C1CC(c2nc(-c3cccc(OC(F)F)c3)no2)CN1c1ccc(Cl)cc1 (centres unmarked) [Compound 66, 1-(4-chlorophenyl)-4-[3-{3-(difluoro-methoxy)phenyl}-1,2,4-oxadiazol-5-yl]pyrrolidin-2-one] | 40 to 80% |  |
| O=C(N[C@@H](CO)c1nc(-c2ncccn2)no1)c1ccc(F)cc1 [Compound 246, 4-fluoro-N-[(1S)-2-hydroxy-1-[3-(pyrimidin-2-yl)-1,2,4-oxadiazol-5-yl]ethyl]benzamide] | 40 to 80% |  |
| O=C1CC(c2nc(-c3ccc4c(c3)OC(F)(F)O4)no2)CN1c1ccc(Cl)cc1 (centres unmarked) [Compound 32, 1-(4-chlorophenyl)-4-{3-(2,2-difluoro-benzo[d][1,3]dioxol-5-yl)-1,2,4-oxadiazol-5-yl}pyrrolidin-2-one] | > 80% | inhibition at 5 µM [2]: 43%; inhibition at 25 µM [3]: 86% |
| C[C@@H](O)[C@H](NC(=O)c1ccc(Cl)cc1)c1nc(-c2ccc(OC(F)(F)F)cc2)no1 [Compound 80, 4-chloro-N-((1S,2R)-2-hydroxy-1-[3-{4-(trifluoro-methoxy)phenyl}-1,2,4-oxadiazol-5-yl]propyl) benzamide] | > 80% | inhibition at 25 µM [3]: 80% |
| N#Cc1ccc(N2CC(c3nc(-c4ccc(O)cc4)no3)CC2=O)cc1 (centres unmarked) [Compound 79, 4-[4-{3-(4-hydroxyphenyl)-1,2,4-oxadiazol-5-yl}-2-oxopyrrolidin-1-yl]benzonitrile] | < 40% |  |
| O=C(N[C@@H](CO)c1nc(-c2cc(F)cc(F)c2)no1)c1ccc(F)cc1 [Compound 218, N-[(1S)-1-[3-[3,5-difluorophenyl)-1,2,4-oxadiazol-5-yl]-2-hydroxyethyl]-4-fluorobenzamide] | 40 to 80% |  |
| COc1ccc(-c2nnc([C@H](CO)NC(=O)c3ccc(Cl)cc3)o2)cc1F [Compound 113, (S)-4-chloro-N-(1-(5-(3-fluoro-4-methoxy-phenyl)-1,3,4-oxadiazol-2-yl)-2-hydroxy-ethyl)benzamide] | < 40% |  |
| O=C1CC(c2nc(-c3ccccc3)no2)CN1c1ccc(Cl)cc1 (centres unmarked) [Compound 43, 1-(4-chlorophenyl)-4-(3-phenyl-1,2,4-oxadiazol-5-yl) pyrrolidin-2-one] | 40 to 80% |  |
| O=C(N[C@@H](CO)c1nc(-c2ccc3c(C(=O)C(F)(F)F)c[nH]c3c2)no1)c1ccc(F)cc1 [Compound 256, 4-fluoro-N-[(1S)-2-hydroxy-1-{3-[3-(2,2,2-trifluoroacetyl)-1H-indol-6-yl]-1,2,4-oxadiazol-5-yl}ethyl] benzamide] | 40 to 80% |  |
| O=C(N[C@@H](CO)c1nc(-c2ccc(C(F)(F)F)cc2)no1)c1ccc(N2CCOCC2)cc1 [Compound 200, N-[(1S)-2-hydroxy-1-{3-[4-(trifluoromethyl)phenyl]-1,2,4-oxadiazol-5-yl}ethyl]-4-(morpholin-4-yl) benzamide] | 40 to 80% |  |
| COCCCNC(=O)c1ccc(-c2noc([C@H](CO)NC(=O)c3ccc(F)cc3)n2)cc1 [Compound 147, 4-{5-[(1S)-1-[(4-fluorophenyl) formamido]-2-hydroxyethyl]-1,2,4-oxadiazol-3-yl}-N-(3-methoxypropyl) benzamide] | 40 to 80% | inhibition at 25 µM [3]: 53% |

| SMILES | inhibition at 25 µM [1] | further results |
| --- | --- | --- |
| O=C(N[C@@H](CO)c1nc(-c2ccc(C(F)(F)F)cc2)no1)C1CNc2ccccc2O1 (stereo partly drawn) [Compound 192, N-[(1S)-2-hydroxy-1-{3-[4-(trifluoromethyl)phenyl]-1,2,4-oxadiazol-5-yl}ethyl]-3,4-dihydro-2H-1,4-benzoxazine-2-carboxamide] | > 80% |  |
| N#Cc1cccc(-c2nnc([C@@H](CO)NC(=O)c3ccc(Cl)cc3)o2)c1 [Compound 109, (R)-4-chloro-N-(1-(5-(3-cyanophenyl)-1,3,4-oxadiazol-2-yl)-2-hydroxyethyl) benzamide] | < 40% |  |
| O=C(NC(CO)c1nc(-c2ccc(O)cc2)no1)c1ccc(Cl)cc1 (centres unmarked) [Compound 78, 4-chloro-N-{2-hydroxy-1-[3-(4-hydroxyphenyl)-1,2,4-oxadiazol-5-yl]ethyl}benzamide] | > 80% | inhibition at 5 µM [2]: 52%; inhibition at 25 µM [3]: 89% |
| O=C(N[C@@H](CO)c1nc(-c2ccc(-n3cccn3)cc2)no1)c1ccccc1 [Compound 180] | < 40% |  |
| O=C1CC(c2nc(-c3ccc(OC(F)(F)F)cc3)no2)CN1c1ccc(Cl)cn1 (centres unmarked) [Compound 49, 1-(5-chloropyridin-2-yl)-4-[3-{4-(trifluoro-methoxy)phenyl}-1,2,4-oxadiazol-5-yl] pyrrolidin-2-one] | 40 to 80% |  |
| NCC(NC(=O)c1ccc(Cl)cc1)c1nnc(-c2ccc(OC(F)(F)F)cc2)o1 (centres unmarked) [Compound 116, N-(2-amino-1-{5-[4-(trifluoromethoxy)phenyl]-1,3,4-oxadiazol-2-yl}ethyl)-4-chlorobenzamide] | > 80% |  |
| O=C(N[C@@H](CO)c1nc(-c2ccc(C(F)(F)F)cc2)no1)c1ccc(F)cc1 [Compound 133, (S)-4-fluoro-N-(2-hydroxy-1-(3-(4-(trifluoromethyl)phenyl)-1,2,4-oxadiazol-5-yl)ethyl)benzamide] |  | inhibition at 25 µM [3]: 88%; inhibition at 25 µM (final concentration of the compound 25 μM, ratio of ThT fluorescence intensity with/without compound, 37° C. for 18 hours, read-out: inhibition rate against amyloid fibril formation (inhibitory activity on a scale of A to C)): > 80%; Inhibitory activity ABC evaluation (inhibition rate against amyloid fibril formation, final concentration of the compound 25 μM, 25 µM): A (80% or more was evaluated as A) |
| O=C1CC(c2nc(-c3ccc(OC(F)F)cc3)no2)CN1c1ccc(Cl)cc1 (centres unmarked) [Compound 52, 1-(4-chlorophenyl)-4-[3-{4-(difluoro-methoxy)phenyl}-1,2,4-oxadiazol-5-yl]pyrrolidin-2-one] | 40 to 80% |  |
| O=C(c1ccc(Cl)cc1)N1CC[C@H](O)[C@H]1c1nc(-c2ccc(OC(F)(F)F)cc2)no1 [Compound 131, (4-chlorophenyl) ((2S,3S)-3-hydroxy-2-(3-(4-(trifluoro-methoxy)phenyl)-1,2,4-oxadiazol-5-yl)pyrrolidin-1-yl)methanone] | 40 to 80% |  |
| CN(C)C(=O)C[C@H](NC(=O)c1ccc(Cl)cc1)c1nc(-c2ccc(OC(F)(F)F)cc2)no1 [Compound 87, (S)-4-chloro-N-(3-(dimethylamino)-3-oxo-1-[3-{4-(trifluoromethoxy)phenyl}-1,2,4-oxadiazol-5-yl]propyl) benzamide] | 40 to 80% |  |
| O=C1CC(c2nc(-c3ccc(O)cc3)no2)CN1c1ccc(Cl)cc1 (centres unmarked) [Compound 41, 1-(4-chlorophenyl)-4-{3-(4-hydroxyphenyl)-1,2,4-oxadiazol-5-yl}pyrrolidin-2-one] | 40 to 80% |  |
| O=C(N[C@@H](CO)c1nc(-c2c[nH]c3ccc(C(F)(F)F)cc23)no1)c1ccc(F)cc1 [Compound 262, 4-fluoro-N-[(1S)-2-hydroxy-1-{3-[5-(trifluoromethyl)-1H-indol-3-yl]-1,2,4-oxadiazol-5-yl}ethyl] benzamide] | 40 to 80% |  |
| N[C@@H](Cc1c[nH]c2ccccc12)C(=O)N[C@@H](CO)c1nc(-c2ccc(C(F)(F)F)cc2)no1 [Compound 241, (2S)-2-amino-N-[(1S)-2-hydroxy-1-{3-[4-(trifluoromethyl)phenyl]-1,2,4-oxadiazol-5-yl}ethyl]-3-(1H-indol-3-yl)propanamide] | < 40% |  |
| O=C(N[C@@H](CO)c1nnc(-c2ccc(O)c(F)c2)o1)c1ccc(Cl)cc1 [Compound 120, (S)-4-chloro-N-(1-(5-(3-fluoro-4-hydroxyphenyl)-1,3,4-oxadiazol-2-yl)-2-hydroxy-ethyl)benzamide] | < 40% |  |
| N[C@H](Cc1c[nH]c2ccccc12)c1nnc(-c2ccc(OC(F)(F)F)cc2)o1 [Compound 114, (R)-2-(1H-indol-3-yl)-1-(5-(4-(trifluoro-methoxy)phenyl)-1,3,4-oxadiazol-2-yl) ethan-1-amine] | > 80% |  |
| COc1ccc(-c2noc([C@H](CO)NC(=O)c3ccccc3)n2)cc1F [Compound 144, N-[(1S)-1-[3-(3-fluoro-4-methoxyphenyl)-1,2,4-oxadiazol-5-yl]-2-hydroxyethyl]benzamide] | > 80% |  |
